Experimental data published in US12227482B2, “Compounds and compositions for the treatment of cancer” (The Regents of the University of California, priority 2016, dated 2025).

Key:
Type in all cases: cell-based
A549 cells = assay: Cell viability (CellTiter-Glo ATP content) in A549 cells; conditions: Homo sapiens, A549, 72 h, 72 hours treatment, cell survival by CellTiter-Glo, 2% fetal bovine serum
Protocol: (§1) Logarithmically growing A549, LOX and MelJuSo cells (ATCC) were plated in antibiotic-free RPMI medium (Coming) supplemented with 2% fetal bovine serum (Gemini Bio-products) at a density of 5,000 cells per well in clear-bottom 96-well plates. The next day cells were treated (triplicates) with increasing doses of a compound of the present disclosure (dissolved in DMSO) and DMSO vehicle controls (final DMSO concentration of 0.5%) for 72 hours and subsequently assessed for cell viability by measuring ATP content with CellTiter-Glo Luminescent Cell Viability Assay (Promega). Signal intensity was measured on a Glomax™ 96 Microplate Luminometer (Promega) and percent cell survival was calculated based on the reading of vehicle control cells set as 100%.

MelJuSo cells = assay: Cell viability (CellTiter-Glo ATP content) in MelJuSo cells; conditions: Homo sapiens, MEL-JUSO, 72 hours treatment, cell survival by CellTiter-Glo, 2% fetal bovine serum
Protocol: as §1

LOX cells = assay: Cell viability (CellTiter-Glo ATP content) in LOX cells; conditions: LOX, 72 h, 72 hours treatment, cell survival by CellTiter-Glo, 2% fetal bovine serum
Protocol: as §1

SMILES	IC50 (A549 cells) [µM]	IC50 (MelJuSo cells) [µM]	IC50 (LOX cells) [µM]
CCCCC1C(c2ccc(F)cc2)=NN(c2ccc(Cl)cc2F)C1(C)C(=O)NCCCC(C)(C)CO (stereo not drawn) [Compound 23, 4-butyl-1-(4-chloro-2-fluorophenyl)-3-(4-fluorophenyl)-N-(5-hydroxy-4,4-dimethylpentyl)-5-methyl-4,5-dihydro-1H-pyrazole-5-carboxamide]	0.5 to 1	0.25 to 0.5	0.5 to 1
CCCCC1C(c2ccc(F)cc2)=NN(c2ccc(F)cc2F)C1(C)C(=O)NCCCN(C)C (stereo not drawn) [Compound 24, 4-butyl-1-(2,4-difluorophenyl)-N-(3-(dimethylamino)propyl)-3-(4-fluorophenyl)-5-methyl-4,5-dihydro-1H-pyrazole-5-carboxamide]	> 2	> 2	> 2
CCCCC1C(c2ccc(F)cc2)=NN(c2ccc(F)cc2F)C1(C)C(=O)NCCCCOC (stereo not drawn) [Compound 25, 4-butyl-1-(2,4-difluorophenyl)-3-(4-fluorophenyl)-N-(4-methoxybutyl)-5-methyl-4,5-dihydro-1H-pyrazole-5-carboxamide]	> 2	1 to 2	> 2
CCCCC1C(c2ccc(F)cc2)=NN(c2ccc(F)cc2F)C1(C)C(=O)N(C)CCCOC (stereo not drawn) [Compound 26, 4-butyl-1-(2,4-difluorophenyl)-3-(4-fluorophenyl)-N-(3-methoxypropyl)-N,5-dimethyl-4,5-dihydro-1H-pyrazole-5-carboxamide]	> 2	> 2	> 2
CCCCC1C(c2ccc(F)cc2)=NN(c2ccc(C(F)(F)F)cc2)C1(C)C(=O)NCCCC(C)(C)CO (stereo not drawn) [Compound 28, 4-butyl-3-(4-fluorophenyl)-N-(5-hydroxy-4,4-dimethylpentyl)-5-methyl-1-(4-(trifluoromethyl)phenyl)-4,5-dihydro-1H-pyrazole-5-carboxamide]	> 2	1 to 2	1 to 2
CCCCC1C(c2ccc(F)cc2)=NN(c2ccc(Cl)cc2C)C1(C)C(=O)NCCCC(C)(C)CO (stereo not drawn) [Compound 29, 4-butyl-1-(4-chloro-2-methylphenyl)-3-(4-fluorophenyl)-N-(5-hydroxy-4,4-dimethylpentyl)-5-methyl-4,5-dihydro-1H-pyrazole-5-carboxamide]	> 2	> 2	> 2
CCCCC1C(c2ccc(F)cc2)=NN(c2ccc(Cl)cc2C)C1(C)C(=O)NCCCOC (stereo not drawn) [Compound 30, 4-butyl-1-(4-chloro-2-methylphenyl)-3-(4-fluorophenyl)-N-(3-methoxypropyl)-5-methyl-4,5-dihydro-1H-pyrazole-5-carboxamide]	> 2	> 2	> 2
CCCCC1C(c2ccc(F)cc2)=NN(c2ccc(F)cc2F)C1(C)C(=O)NCCC(=O)OC (stereo not drawn) [Compound 31, methyl 3-(4-butyl-1-(2,4-difluorophenyl)-3-(4-fluorophenyl)-5-methyl-4,5-dihydro-1H-pyrazole-5-carboxamido)propanoate]	1 to 2	0.5 to 1	1 to 2
CCCCC1C(c2ccc(F)cc2)=NN(c2ccc(F)cc2F)C1(C)C(=O)NCCOCC (stereo not drawn) [Compound 32, 4-butyl-1-(2,4-difluorophenyl)-N-(2-ethoxyethyl)-3-(4-fluorophenyl)-5-methyl-4,5-dihydro-1H-pyrazole-5-carboxamide]	0.5 to 1	0.25 to 0.5	0.5 to 1
CCCCC1C(c2ccc(F)cc2)=NN(c2ccccc2)C1(C)C(=O)NCCCCCO (stereo not drawn) [Compound 33, 4-butyl-3-(4-fluorophenyl)-N-(5-hydroxypentyl)-5-methyl-1-phenyl-4,5-dihydro-1H-pyrazole-5-carboxamide]	> 2	0.5 to 1	1 to 2
CCCCC1C(c2ccc(F)cc2)=NN(c2ccccc2)C1(C)C(=O)NCCCCCCO (stereo not drawn) [Compound 34, 4-butyl-3-(4-fluorophenyl)-N-(6-hydroxyhexyl)-5-methyl-1-phenyl-4,5-dihydro-1H-pyrazole-5-carboxamide]	> 2	0.5 to 1	0.5 to 1
CCCCC1C(c2ccc(F)cc2)=NN(c2ccccc2)C1(C)C(=O)NCCCCO (stereo not drawn) [Compound 35, 4-butyl-3-(4-fluorophenyl)-N-(4-hydroxybutyl)-5-methyl-1-phenyl-4,5-dihydro-1H-pyrazole-5-carboxamide]	> 2	1 to 2	1 to 2
CCCCC1C(c2ccc(F)cc2)=NN(c2ccccc2)C1(C)C(=O)NCc1ccc(O)cc1 (stereo not drawn) [Compound 36, 4-butyl-3-(4-fluorophenyl)-N-(4-hydroxybenzyl)-5-methyl-1-phenyl-4,5-dihydro-1H-pyrazole-5-carboxamide]	> 2	1 to 2	> 2
CCCCC1C(c2ccc(F)cc2)=NN(c2ccccc2)C1(C)C(=O)NC(C)(C)CO (stereo not drawn) [Compound 37, 4-butyl-3-(4-fluorophenyl)-N-(1-hydroxy-2-methylpropan-2-yl)-5-methyl-1-phenyl-4,5-dihydro-1H-pyrazole-5-carboxamide]	> 2	> 2	> 2
CCCCC1C(c2ccc(F)cc2)=NN(c2ccccc2)C1(C)C(=O)NCCc1ccc(O)cc1 (stereo not drawn) [Compound 38, 4-butyl-3-(4-fluorophenyl)-N-(4-hydroxyphenethyl)-5-methyl-1-phenyl-4,5-dihydro-1H-pyrazole-5-carboxamide]	> 2	0.5 to 1	> 2
CCCCC1C(c2ccc(F)cc2)=NN(c2ccccc2)C1(C)C(=O)NCc1cccc(Cl)c1 (stereo not drawn) [Compound 39, 4-butyl-N-(3-chlorobenzyl)-3-(4-fluorophenyl)-5-methyl-1-phenyl-4,5-dihydro-1H-pyrazole-5-carboxamide]	> 2	> 2	> 2
CCCCC1C(c2ccc(F)cc2)=NN(c2ccccc2)C1(C)C(=O)NCc1ccc(Cl)c(Cl)c1 (stereo not drawn) [Compound 40, 4-butyl-N-(3,4-dichlorobenzyl)-3-(4-fluorophenyl)-5-methyl-1-phenyl-4,5-dihydro-1H-pyrazole-5-carboxamide]	> 2	> 2	> 2
CCCCC1C(c2ccc(F)cc2)=NN(c2ccccc2)C1(C)C(=O)NCc1cc(Cl)cc(Cl)c1 (stereo not drawn) [Compound 41, 4-butyl-N-(3,5-dichlorobenzyl)-3-(4-fluorophenyl)-5-methyl-1-phenyl-4,5-dihydro-1H-pyrazole-5-carboxamide]	> 2	1 to 2	> 2
CCCCC1C(c2ccc(F)cc2)=NN(c2ccccc2)C1(C)C(=O)N[C@@H](C)c1ccccc1 (stereo partly drawn) [Compound 42, 4-butyl-3-(4-fluorophenyl)-5-methyl-1-phenyl-N-((S)-1-phenylethyl)-4,5-dihydro-1H-pyrazole-5-carboxamide]	> 2	> 2	> 2
CCCCC1C(c2ccc(F)cc2)=NN(c2ccccc2)C1(C)C(=O)N[C@H](C)c1ccccc1 (stereo partly drawn) [Compound 43, 4-butyl-3-(4-fluorophenyl)-5-methyl-1-phenyl-N-((R)-1-phenylethyl)-4,5-dihydro-1H-pyrazole-5-carboxamide]	> 2	> 2	> 2
CCCCC1C(c2ccc(F)cc2)=NN(c2ccccc2)C1(C)C(=O)NCc1ccccc1OC (stereo not drawn) [Compound 44, 4-butyl-3-(4-fluorophenyl)-N-(2-methoxybenzyl)-5-methyl-1-phenyl-4,5-dihydro-1H-pyrazole-5-carboxamide]	> 2	> 2	> 2
CCCCC1C(c2ccc(F)cc2)=NN(c2ccccc2)C1(C)C(=O)NCc1cccc(OC)c1OC (stereo not drawn) [Compound 45, 4-butyl-N-(2,3-dimethoxybenzyl)-3-(4-fluorophenyl)-5-methyl-1-phenyl-4,5-dihydro-1H-pyrazole-5-carboxamide]	> 2	> 2	> 2
CCCCC1C(c2ccc(F)cc2)=NN(c2ccccc2)C1(C)C(=O)NCc1ccc(OC)cc1OC (stereo not drawn) [Compound 46, 4-butyl-N-(2,4-dimethoxybenzyl)-3-(4-fluorophenyl)-5-methyl-1-phenyl-4,5-dihydro-1H-pyrazole-5-carboxamide]	> 2	> 2	> 2
CCCCC1C(c2ccc(F)cc2)=NN(c2ccccc2)C1(C)C(=O)N(C)Cc1ccc(OC)c(OC)c1 (stereo not drawn) [Compound 47, 4-butyl-N-(3,4-dimethoxybenzyl)-3-(4-fluorophenyl)-N,5-dimethyl-1-phenyl-4,5-dihydro-1H-pyrazole-5-carboxamide]	> 2	> 2	> 2
CCCCC1C(c2ccc(F)cc2)=NN(c2ccccc2)C1(C)C(=O)NCc1ccc(N(C)C)cc1 (stereo not drawn) [Compound 48, 4-butyl-N-(4-(dimethylamino)benzyl)-3-(4-fluorophenyl)-5-methyl-1-phenyl-4,5-dihydro-1H-pyrazole-5-carboxamide]	> 2	> 2	> 2
CCCCC1C(c2ccc(F)cc2)=NN(c2ccccc2)C1(C)C(=O)NCCCN(C)C (stereo not drawn) [Compound 49, 4-butyl-N-(3-(dimethylamino)propyl)-3-(4-fluorophenyl)-5-methyl-1-phenyl-4,5-dihydro-1H-pyrazole-5-carboxamide]	> 2	> 2	> 2
CCCCC1C(c2ccc(F)cc2)=NN(c2ccccc2)C1(C)C(=O)NCC(C)(C)CN(C)C (stereo not drawn) [Compound 50, 4-butyl-N-(3-(dimethylamino)-2,2-dimethylpropyl)-3-(4-fluorophenyl)-5-methyl-1-phenyl-4,5-dihydro-1H-pyrazole-5-carboxamide]	> 2	> 2	> 2
